Measured values published in patent publication US20240190874A1, “SMALL MOLECULE DEGRADERS OF ANDROGEN RECEPTOR” (THE REGENTS OF THE UNIVERSITY OF MICHIGAN, priority 2021, published 2024).
pIC50: −log10 of the molar value. Read-outs that look alike come from different tables or passages of the source.

Assays:
Format in all cases: cell-based
[1] = target: T1, AR (Homo sapiens, UniProt P10275); test: Degradation of AR in VCaP cells; details: VCaP cells; for Dmax: VCaP
T1 construct: Degradation of AR; Cellular potency; host or cells: VCaP cells
T1 sequence (P10275 1-920): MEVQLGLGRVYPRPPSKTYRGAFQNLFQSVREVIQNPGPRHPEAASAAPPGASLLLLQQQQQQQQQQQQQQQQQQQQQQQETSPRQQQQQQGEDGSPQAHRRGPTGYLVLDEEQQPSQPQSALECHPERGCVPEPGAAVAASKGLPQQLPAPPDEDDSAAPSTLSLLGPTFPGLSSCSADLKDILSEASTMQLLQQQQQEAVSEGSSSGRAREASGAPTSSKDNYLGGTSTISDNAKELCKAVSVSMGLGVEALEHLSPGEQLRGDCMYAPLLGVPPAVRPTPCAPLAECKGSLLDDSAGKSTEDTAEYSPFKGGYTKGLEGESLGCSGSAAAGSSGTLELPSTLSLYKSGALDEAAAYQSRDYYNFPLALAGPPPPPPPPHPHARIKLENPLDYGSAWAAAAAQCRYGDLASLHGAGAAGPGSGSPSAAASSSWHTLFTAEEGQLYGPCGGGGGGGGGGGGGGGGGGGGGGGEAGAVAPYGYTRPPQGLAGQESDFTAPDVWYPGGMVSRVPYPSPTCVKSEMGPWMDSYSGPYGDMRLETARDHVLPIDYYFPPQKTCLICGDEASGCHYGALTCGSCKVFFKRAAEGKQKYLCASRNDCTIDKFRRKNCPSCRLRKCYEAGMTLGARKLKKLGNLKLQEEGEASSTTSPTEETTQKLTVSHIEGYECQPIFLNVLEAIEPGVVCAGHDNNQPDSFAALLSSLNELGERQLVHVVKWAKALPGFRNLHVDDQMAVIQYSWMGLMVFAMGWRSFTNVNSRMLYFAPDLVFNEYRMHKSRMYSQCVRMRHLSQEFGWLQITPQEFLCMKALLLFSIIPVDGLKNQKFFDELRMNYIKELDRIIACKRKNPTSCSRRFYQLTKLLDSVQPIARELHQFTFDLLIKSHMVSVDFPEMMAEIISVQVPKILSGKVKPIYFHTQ
Procedure: (§1) Biological Assays. LNCaP and VCaP cells used were purchased from American Type Culture Collection (ATCC). LNCaP were grown in RPMI 1640 (Invitrogen) and VCaP cells were grown in DMEM with Glutamax (Invitrogen). All of the cells were supplemented with 10% fetal bovine serum (Invitrogen) at 37° C. in a humidified 5% CO2 incubator.

[2] = tested on: VCaP cells; test: Cellular potency (IC50) in VCaP cells
Procedure: as §1

[3] = tested on: LNCaP cells; test: Cellular potency (IC50) in LNCaP cells
Procedure: as §1

C[C@H]1CC2(CCN(c3ccc(CN4CCN(C5CN(c6ccc7c(c6)C(=O)N(C6CCC(=O)NC6=O)C7=O)C5)CC4)c(F)c3)CC2)CN1c1ccc(C#N)c(Cl)c1 (some centres unmarked) [compound 40]
DC50 [1]: < 10 nM | Degradation of AR in VCaP cells Dmax [1]: A (A = >90%) | pIC50 [2]: > 7.00 | pIC50 [3]: > 7.00

C[C@H]1CC2(CCN(c3ccc(CN4CCC(C5CN(c6ccc7c(c6)C(=O)N(C6CCC(=O)NC6=O)C7=O)C5)CC4)c(F)c3)CC2)CN1c1ccc(C#N)c(Cl)c1 (some centres unmarked) [compound 41]
DC50 [1]: < 10 nM | Degradation of AR in VCaP cells Dmax [1]: A (A = >90%) | pIC50 [2]: > 7.00 | pIC50 [3]: > 7.00

C[C@H]1CC2(CCN(c3ccc(CN4CCN(C5CCN(c6ccc7c(c6)C(=O)N(C6CCC(=O)NC6=O)C7=O)CC5)CC4)c(F)c3)CC2)CN1c1ccc(C#N)c(Cl)c1 (some centres unmarked) [compound 42]
DC50 [1]: < 10 nM | Degradation of AR in VCaP cells Dmax [1]: A (A = >90%) | pIC50 [2]: > 7.00 | pIC50 [3]: > 7.00

C[C@H]1CC2(CCN(c3ccc(C4CCN(CC5CN(c6ccc7c(c6)C(=O)N(C6CCC(=O)NC6=O)C7=O)C5)CC4)cn3)CC2)CN1c1ccc(C#N)c(Cl)c1 (some centres unmarked) [compound 43]
DC50 [1]: < 1 nM | Dmax [1]: > 90% | pIC50 ([2]; Homo sapiens, VCaP): > 8.00 | pIC50 ([3]; Homo sapiens, LNCaP): > 8.00

C[C@H]1CC2(CCN(c3ccc(C4CCN(CC5CCN(c6ccc7c(c6)C(=O)N(C6CCC(=O)NC6=O)C7=O)CC5)CC4)cn3)CC2)CN1c1ccc(C#N)c(Cl)c1 (some centres unmarked) [compound 44]
DC50 [1]: < 1 nM | Dmax [1]: > 90% | pIC50 ([2]; Homo sapiens, VCaP): > 8.00 | pIC50 ([3]; Homo sapiens, LNCaP): > 8.00

C[C@H]1CC2(CCN(c3ccc(C4CCN(CC5CN(c6ccc7c(c6)C(=O)N(C6CCC(=O)NC6=O)C7=O)C5)CC4)nc3)CC2)CN1c1ccc(C#N)c(Cl)c1 (some centres unmarked) [compound 45]
DC50 [1]: < 1 nM | Dmax [1]: > 90% | pIC50 ([2]; Homo sapiens, VCaP): > 8.00 | pIC50 ([3]; Homo sapiens, LNCaP): > 8.00

C[C@H]1CC2(CCN(c3ccc(N4CCN(CC5CN(c6ccc7c(c6)C(=O)N(C6CCC(=O)NC6=O)C7=O)C5)CC4)nn3)CC2)CN1c1ccc(C#N)c(Cl)c1 (some centres unmarked) [compound 47]
DC50 [1]: < 1 nM | Dmax [1]: > 90% | pIC50 ([2]; Homo sapiens, VCaP): > 8.00 | pIC50 ([3]; Homo sapiens, LNCaP): > 8.00

C[C@H]1CC2(CCN(c3ccc(N4CCN(CC5CCN(c6ccc7c(c6)C(=O)N(C6CCC(=O)NC6=O)C7=O)CC5)CC4)nn3)CC2)CN1c1ccc(C#N)c(Cl)c1 (some centres unmarked) [compound 48]
DC50 [1]: < 1 nM | Dmax [1]: > 90% | pIC50 ([2]; Homo sapiens, VCaP): > 8.00 | pIC50 ([3]; Homo sapiens, LNCaP): > 8.00

C[C@H]1CC2(CCN(c3cnc(N4CCN(CC5CN(c6ccc7c(c6)C(=O)N(C6CCC(=O)NC6=O)C7=O)C5)CC4)cn3)CC2)CN1c1ccc(C#N)c(Cl)c1 (some centres unmarked) [compound 49]
DC50 [1]: < 1 nM | Dmax [1]: > 90% | pIC50 ([2]; Homo sapiens, VCaP): > 8.00 | pIC50 ([3]; Homo sapiens, LNCaP): > 8.00

C[C@H]1CC2(CCN(c3cnc(N4CCN(CC5CCN(c6ccc7c(c6)C(=O)N(C6CCC(=O)NC6=O)C7=O)CC5)CC4)cn3)CC2)CN1c1ccc(C#N)c(Cl)c1 (some centres unmarked) [compound 50]
DC50 [1]: < 10 nM | Dmax [1]: > 90% | pIC50 ([2]; Homo sapiens, VCaP): > 7.00 | pIC50 ([3]; Homo sapiens, LNCaP): > 7.00

C[C@H]1CC2(CCN(c3ccc(N4CCC(CN5CCN(c6ccc7c(c6)C(=O)N(C6CCC(=O)NC6=O)C7=O)CC5)CC4)cn3)CC2)CN1c1ccc(C#N)c(Cl)c1 (some centres unmarked) [compound 51]
DC50 [1]: < 10 nM | Dmax [1]: > 90% | pIC50 ([2]; Homo sapiens, VCaP): > 7.00 | pIC50 ([3]; Homo sapiens, LNCaP): > 7.00

C[C@H]1CC2(CCN(c3ccc(N4CCC(CN5Cc6cc7c(cc6C5)C(=O)N(C5CCC(=O)NC5=O)C7=O)CC4)cn3)CC2)CN1c1ccc(C#N)c(Cl)c1 (some centres unmarked) [compound 52]
DC50 [1]: < 10 nM | Dmax [1]: > 90% | pIC50 ([2]; Homo sapiens, VCaP): > 7.00 | pIC50 ([3]; Homo sapiens, LNCaP): > 7.00

C[C@H]1CC2(CCN(c3ccc(N4CCC(CN5CCN(c6ccc7c(c6)C(=O)N(C6CCC(=O)NC6=O)C7=O)CC5)CC4)nc3)CC2)CN1c1ccc(C#N)c(Cl)c1 (some centres unmarked) [compound 53]
DC50 [1]: < 10 nM | Dmax [1]: > 90% | pIC50 ([2]; Homo sapiens, VCaP): > 7.00 | pIC50 ([3]; Homo sapiens, LNCaP): > 7.00

C[C@H]1CC2(CCN(c3ccc(N4CCC(CN5Cc6cc7c(cc6C5)C(=O)N(C5CCC(=O)NC5=O)C7=O)CC4)nc3)CC2)CN1c1ccc(C#N)c(Cl)c1 (some centres unmarked) [compound 54]
DC50 [1]: < 10 nM | Dmax [1]: > 90% | pIC50 ([2]; Homo sapiens, VCaP): > 7.00 | pIC50 ([3]; Homo sapiens, LNCaP): > 7.00

C[C@H]1CC2(CCN(c3ccc(N4CCC(CN5CCN(c6ccc7c(c6)C(=O)N(C6CCC(=O)NC6=O)C7=O)CC5)CC4)nn3)CC2)CN1c1ccc(C#N)c(Cl)c1 (some centres unmarked) [compound 55]
DC50 [1]: < 10 nM | Dmax [1]: > 90% | pIC50 ([2]; Homo sapiens, VCaP): > 7.00 | pIC50 ([3]; Homo sapiens, LNCaP): > 7.00

C[C@H]1CC2(CCN(c3ccc(N4CCC(CN5Cc6cc7c(cc6C5)C(=O)N(C5CCC(=O)NC5=O)C7=O)CC4)nn3)CC2)CN1c1ccc(C#N)c(Cl)c1 (some centres unmarked) [compound 56]
DC50 [1]: < 10 nM | Dmax [1]: > 90% | pIC50 ([2]; Homo sapiens, VCaP): > 7.00 | pIC50 ([3]; Homo sapiens, LNCaP): > 7.00

C[C@H]1CC2(CCN(c3ccc(OC4CCN(C5CN(c6ccc7c(c6)C(=O)N(C6CCC(=O)NC6=O)C7=O)C5)CC4)cc3)CC2)CN1c1ccc(C#N)c(Cl)c1 (some centres unmarked) [compound 57]
DC50 [1]: < 1 nM | Dmax [1]: > 90% | pIC50 ([2]; Homo sapiens, VCaP): > 8.00 | pIC50 ([3]; Homo sapiens, LNCaP): > 8.00

C[C@H]1CC2(CCN(c3ccc(OC4CCN(C5CCN(c6ccc7c(c6)C(=O)N(C6CCC(=O)NC6=O)C7=O)CC5)CC4)cc3)CC2)CN1c1ccc(C#N)c(Cl)c1 (some centres unmarked) [compound 58]
DC50 [1]: < 10 nM | Dmax [1]: > 90% | pIC50 ([2]; Homo sapiens, VCaP): > 7.00 | pIC50 ([3]; Homo sapiens, LNCaP): > 7.00

C[C@H]1CC2(CCN(c3ccc(OC4CN(C5CN(c6ccc7c(c6)C(=O)N(C6CCC(=O)NC6=O)C7=O)C5)C4)cc3)CC2)CN1c1ccc(C#N)c(Cl)c1 (some centres unmarked) [compound 59]
DC50 [1]: < 1 nM | Dmax [1]: > 90% | pIC50 ([2]; Homo sapiens, VCaP): > 8.00 | pIC50 ([3]; Homo sapiens, LNCaP): > 8.00

C[C@H]1CC2(CCN(c3ccc(OC4CN(C5CCN(c6ccc7c(c6)C(=O)N(C6CCC(=O)NC6=O)C7=O)CC5)C4)cc3)CC2)CN1c1ccc(C#N)c(Cl)c1 (some centres unmarked) [compound 60]
DC50 [1]: < 1 nM | Dmax [1]: > 90% | pIC50 ([2]; Homo sapiens, VCaP): > 8.00 | pIC50 ([3]; Homo sapiens, LNCaP): > 8.00

C[C@H]1CC2(CCN(c3ccc(OC4CCN(C5CN(c6ccc7c(c6)C(=O)N(C6CCC(=O)NC6=O)C7=O)C5)CC4)cn3)CC2)CN1c1ccc(C#N)c(Cl)c1 (stereo partly drawn) [compound 61, 2-chloro-4-((3S)-8-(5-((1-(1-(2-(2,6-dioxopiperidin-3-yl)-1,3-dioxoisoindolin-5-yl)azetidin-3-yl)piperidin-4-yl)oxy)pyridin-2-yl)-3-methyl-2,8-diazaspiro-[4.5]decan-2-yl)benzonitrile]
Dmax [1]: > 90% | pIC50 ([2]; Homo sapiens, VCaP): > 8.00 | pIC50 ([3]; Homo sapiens, LNCaP): > 8.00

C[C@H]1CC2(CCN(c3ccc(OC4CCN(C5CN(c6ccc7c(c6)C(=O)N(C6CCC(=O)NC6=O)C7=O)C5)CC4)nn3)CC2)CN1c1ccc(C#N)c(Cl)c1 (some centres unmarked) [compound 62]
DC50 [1]: < 1 nM | Dmax [1]: > 90% | pIC50 ([2]; Homo sapiens, VCaP): > 8.00 | pIC50 ([3]; Homo sapiens, LNCaP): > 8.00

C[C@H]1CC2(CCN(c3ccc(OC4CCN(C5CN(c6ccc7c(c6)C(=O)N(C6CCC(=O)NC6=O)C7=O)C5)CC4)nc3)CC2)CN1c1ccc(C#N)c(Cl)c1 (some centres unmarked) [compound 63]
DC50 [1]: < 1 nM | Dmax [1]: > 90% | pIC50 ([2]; Homo sapiens, VCaP): > 8.00 | pIC50 ([3]; Homo sapiens, LNCaP): > 8.00

C[C@H]1CC2(CCN(c3ccc(OC4CN(C5CN(c6ccc7c(c6)C(=O)N(C6CCC(=O)NC6=O)C7=O)C5)C4)cn3)CC2)CN1c1ccc(C#N)c(Cl)c1 (some centres unmarked) [compound 69]
DC50 [1]: < 1 nM | Dmax [1]: > 90% | pIC50 ([2]; Homo sapiens, VCaP): > 8.00 | pIC50 ([3]; Homo sapiens, LNCaP): > 8.00
